According to US20080292584A1 (priority 2005, published 2008):
Several values for one entry are separate records, joined by “and”; a condition that tells them apart may be missing. Equal entries are not always repeated. Where two headings read alike, the source gives them in different places.

Legend:
[1] = target: CYP2D6 (Homo sapiens, UniProt P10635); assay: Metabolism of metaxalone by expressed recombinant human CYP2D6 (Example 1); conditions: 30 min;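 also: reactions in 0.5 mL were started by adding an NADPH regenerating system after 5 min preincubation, with background signal estimated from controls containing only matrix components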
Description: Commercially available microsomes from baculovirus-infected insect cells containing singly-expressed recombinant wild-type (*1 allele) human CYP enzymes and cDNA-expressed human cytochrome p450 oxidoreductase [BD SUPERSOMES Enzymes; BD Biosciences Discovery Labware (Woburn, Mass.)] were used.
After a 5-minute pre-incubation, an NADPH regenerating system (NRS) was added to the incubation mixtures to initiate reactions, with a final incubation volume of 0.5 mL. Incubations were continued for 30 minutes, and then terminated, except for those for CYP2C19, which were incubated for 36 minutes prior to termination.
Matrix controls were performed to determine the background signal from the matrix components (microsomes (10 pmol p450), 01N Tris buffer, NRS, and 1% methanol). […] After a 5-minute pre-incubation, 2% sodium bicarbonate solution was added to the incubation mixtures. Incubation was for 30 minutes at a final volume of 0.5 mL. Matrix and metabolic negative controls were terminated by adding an equal volume of methanol. […] Analysis of samples was subsequent to storage at −70° C.

[2] = target: CYP3A4 (Homo sapiens, UniProt P08684); conditions: for % Turnover Mean: both, human, microsomes, 1 h, pH 7.4
Description: Human liver microsomes pooled from 15 individuals (male and female) (Pool HMMC-PL020; CellzDirect, Inc., In Vitro Products and Services Division) were used in some experiments of this study.
% Turnover=100−{[TA(final)]/[mean of TA(0 min)]}×100,
% Inhibition of Turnover=100{1−([TA(0 min)]−[TA(final-inhibitor)])/([TA(0 min)]−[TA(final-no inhibitor)])}.
The inhibitors or vehicle control were incubated with the pooled human liver microsomes (1 mg/mL) and NADPH (1 mM) in 0.1 M phosphate buffer, pH 7.4. […] Incubations were conducted in triplicate and terminated by addition of organic solvent. Samples were extracted and analyzed by LC-MS/MS as described above.

[3] = target: T1, CYP2B6 (Homo sapiens, UniProt P20813); assay: Inhibition of CYP2B6 activity in pooled human liver microsomes (S-mephenytoin 1 mM to nirvanol); format: in vitro ADME
T1 sequence (P20813 1-491): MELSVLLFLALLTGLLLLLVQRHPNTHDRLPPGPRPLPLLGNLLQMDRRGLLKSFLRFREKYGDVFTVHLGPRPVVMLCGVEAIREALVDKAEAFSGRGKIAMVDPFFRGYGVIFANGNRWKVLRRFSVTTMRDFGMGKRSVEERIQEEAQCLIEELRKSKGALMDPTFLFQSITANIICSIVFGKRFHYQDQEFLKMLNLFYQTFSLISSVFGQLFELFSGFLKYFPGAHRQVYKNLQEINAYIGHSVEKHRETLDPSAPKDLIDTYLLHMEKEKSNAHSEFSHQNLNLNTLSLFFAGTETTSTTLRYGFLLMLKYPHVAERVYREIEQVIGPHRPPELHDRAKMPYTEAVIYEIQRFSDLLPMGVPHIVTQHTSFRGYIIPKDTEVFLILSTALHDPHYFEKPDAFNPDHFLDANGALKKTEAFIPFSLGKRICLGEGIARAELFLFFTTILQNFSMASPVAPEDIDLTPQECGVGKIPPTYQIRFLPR
Description: All other incubations were for 30 minutes.
Four replicates were performed.
Two replicates were performed.

[4] = system: CYP2A6; assay: Induction/inhibition of CYP2A6 activity in cryopreserved human hepatocytes (coumarin); format: in vitro ADME
Text: Hepatocytes from three human donors were obtained from a cryopreserved hepatocyte bank (In Vitro Technologies, Inc., USA). After thawing, viable hepatocytes were transferred to collagen-coated 48-well plates for attachment in plating medium (DMEM stock (Dulbecco's modified Eagle's medium, supplemented with bovine serum albumin, fructose, N-(2-hydroxyethyl)piperazine-N′-(2-ethanesulfonate) (HEPES), and sodium bicarbonate), supplemented with antibiotics, bovine serum, hydrocortisone, insulin and minimum essential medium (MEM) nonessential amino acids). After attachment to the collagen matrix, plating medium was replaced with sandwich medium (plating medium supplemented with VITROGEN) and incubated until use.
The supplemented KHB was replaced with 150 μL supplemented KHB containing the appropriate isoform-selective substrate and incubated for 4 hrs prior to termination by adding 150 μL ice-cold methanol, except for the CYP2C8 incubations which were terminated by adding 150 μL acetonitrile.
All substrates were dissolved in acetonitrile.
Replicate trials and controls were performed. […] Additionally, reference control samples were included to evaluate inducibility of CYP2B6, CYP2C9, and CYP2C19 in the test system.
Mean specific activity values with associated p-values≦0.05 were deemed to be statistically significant.

[5] = 0.75 μM metaxalone, 1 mg/mL HLM, 60 min, with ketoconazole
[6] = 0.75 μM metaxalone, 1 mg/mL HLM, 60 min, with ketoconazole, single replicates
[7] = 7.5 μM metaxalone, 1 mg/mL HLM, 60 min, with ketoconazole
[8] = 7.5 μM metaxalone, 1 mg/mL HLM, 60 min, with ketoconazole, single replicates

Chain of CYP2D6 (P10635 whole entry): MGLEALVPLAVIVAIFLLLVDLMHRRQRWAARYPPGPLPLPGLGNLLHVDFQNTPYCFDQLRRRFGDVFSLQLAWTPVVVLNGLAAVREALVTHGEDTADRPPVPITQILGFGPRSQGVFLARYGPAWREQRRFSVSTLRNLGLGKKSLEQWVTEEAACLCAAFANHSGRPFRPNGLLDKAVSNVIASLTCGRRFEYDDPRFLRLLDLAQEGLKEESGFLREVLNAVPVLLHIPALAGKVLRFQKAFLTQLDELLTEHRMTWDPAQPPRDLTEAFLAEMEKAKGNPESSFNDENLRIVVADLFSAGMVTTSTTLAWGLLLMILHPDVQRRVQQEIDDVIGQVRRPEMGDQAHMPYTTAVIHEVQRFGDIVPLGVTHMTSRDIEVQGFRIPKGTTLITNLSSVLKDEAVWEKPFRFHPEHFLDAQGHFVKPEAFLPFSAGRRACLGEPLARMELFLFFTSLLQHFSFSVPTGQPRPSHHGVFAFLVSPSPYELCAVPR
Chain of CYP3A4 (P08684 whole entry): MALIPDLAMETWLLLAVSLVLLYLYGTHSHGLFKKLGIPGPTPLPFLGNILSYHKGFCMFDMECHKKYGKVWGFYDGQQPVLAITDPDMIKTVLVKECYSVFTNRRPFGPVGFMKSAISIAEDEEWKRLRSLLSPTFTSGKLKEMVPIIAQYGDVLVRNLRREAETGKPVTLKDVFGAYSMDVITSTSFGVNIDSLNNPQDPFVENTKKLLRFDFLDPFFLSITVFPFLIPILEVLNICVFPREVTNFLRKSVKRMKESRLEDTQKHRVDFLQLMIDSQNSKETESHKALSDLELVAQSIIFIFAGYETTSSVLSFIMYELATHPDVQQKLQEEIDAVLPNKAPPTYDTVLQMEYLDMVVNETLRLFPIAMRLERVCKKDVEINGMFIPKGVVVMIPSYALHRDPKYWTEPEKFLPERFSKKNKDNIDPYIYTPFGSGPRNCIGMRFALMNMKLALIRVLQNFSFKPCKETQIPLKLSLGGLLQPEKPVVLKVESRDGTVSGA

Cc1cc(C)cc(OCC2CNC(=O)O2)c1 (stereo not drawn) [metaxalone, 5-[(3,5-dimethylphenoxy)methyl]-2-oxazolidinone]
Metaxalone Present Adjusted Individual ([1]; metaxalone 0.5 μM): 0.374 µM and 0.297 µM and 0.286 µM | Metaxalone Present Adjusted Mean ± SD ([1]; metaxalone 0.5 μM): 0.319 ± 0.0477 µM | Metaxalone Present Raw ([1]; metaxalone 0.5 μM): 0.1868 µM and 0.1486 µM and 0.1431 µM | Percent of Metabolic Negative Control Individual ([1]; metaxalone 0.5 μM): 128% and 102% and 98.0% | Percent of Metabolic Negative Control Mean ± SD ([1]; metaxalone 0.5 μM): 109 ± 16.3% | Metaxalone Present Adjusted Individual ([1]; metaxalone 2.5 μM): 1.52 µM and 1.54 µM and 1.53 µM | Metaxalone Present Adjusted Mean ± SD ([1]; metaxalone 2.5 μM): 1.53 ± 0.0111 µM | Metaxalone Present Raw ([1]; metaxalone 2.5 μM): 0.7583 µM and 0.7685 µM and 0.767 µM | Percent of Metabolic Negative Control Individual ([1]; metaxalone 2.5 μM): 96.9% and 98.2% and 98.0% | Percent of Metabolic Negative Control Mean ± SD ([1]; metaxalone 2.5 μM): 97.7 ± 0.707% | Metaxalone Present Adjusted Individual ([1]; metaxalone 25 μM): 19.1 µM and 19.7 µM and 18.9 µM | Metaxalone Present Adjusted Mean ± SD ([1]; metaxalone 25 μM): 19.2 ± 0.436 µM | Metaxalone Present Raw ([1]; metaxalone 25 μM): 9.526 µM and 9.845 µM and 9.429 µM | Percent of Metabolic Negative Control Individual ([1]; metaxalone 25 μM): 99.2% and 103% and 98.2% | Percent of Metabolic Negative Control Mean ± SD ([1]; metaxalone 25 μM): 99.9 ± 2.27% | % inhibition of turnover Mean [2, 5]: 126% | Mean Conc. [2, 5]: 0.831 µM | % inhibition of turnover [2, 6]: 132% and 116% and 130% | Conc. [2, 6]: 0.844 µM and 0.807 µM and 0.842 µM | % inhibition of turnover Mean [2, 7]: 130% | Mean Conc. [2, 7]: 9.13 µM | % Turnover [2, 8]: 0.28% | % inhibition of turnover [2, 8]: 98.8% and 161% and 129% | Conc. [2, 8]: 8.49 µM and 9.78 µM and 9.12 µM | % Turnover Mean ([2]; 0.75 μM): −7.71% | % Turnover Mean ([2]; 7.5 μM): −7.26% | inhibition of CYP activity at a statistically significant level ([3]; 0.3-100 μM metaxalone, p≦0.05): inhibited | Inhibitor ([3]; CYP isozyme 2B6, summary of studies): + | Percent of VC ([3]; metaxalone 0.3 μM): 90.2% | Specific Activity Individual ([3]; metaxalone 0.3 μM): 27.9 pmol/min/mg protein and 25.6 pmol/min/mg protein and 27.5 pmol/min/mg protein | Specific Activity Mean ± SD ([3]; metaxalone 0.3 μM): 27.0 ± 1.21 pmol/min/mg protein | Percent of VC ([3]; metaxalone 1 μM): 99.5% | Specific Activity Individual ([3]; metaxalone 1 μM): 27.3 pmol/min/mg protein and 29.5 pmol/min/mg protein and 32.6 pmol/min/mg protein | Specific Activity Mean ± SD ([3]; metaxalone 1 μM): 29.8 ± 2.68 pmol/min/mg protein | Percent of VC ([3]; metaxalone 3 μM): 90.6% | Specific Activity Individual ([3]; metaxalone 3 μM): 26.3 pmol/min/mg protein and 26.9 pmol/min/mg protein and 28.2 pmol/min/mg protein | Specific Activity Mean ± SD ([3]; metaxalone 3 μM): 27.1 ± 1.00 pmol/min/mg protein | Percent of VC ([3]; metaxalone 30 μM): 96.6% | Specific Activity Individual ([3]; metaxalone 30 μM): 28.9 pmol/min/mg protein and 28.7 pmol/min/mg protein and 29.2 pmol/min/mg protein | Specific Activity Mean ± SD ([3]; metaxalone 30 μM): 28.9 ± 0.216 pmol/min/mg protein | Percent of VC ([3]; metaxalone 100 μM): 83.7% | Specific Activity Individual ([3]; metaxalone 100 μM): 24.9 pmol/min/mg protein and 24.6 pmol/min/mg protein and 25.7 pmol/min/mg protein | Specific Activity Mean ± SD ([3]; metaxalone 100 μM): 25.1 ± 0.581 pmol/min/mg protein | Inducer/Inhibitor ([4]; CYP isozyme 2A6, summary of studies): 0 | Percent of VC ([4]; Donor 1, Metaxalone 0.4 μM): 100% | Specific Activity Individual ([4]; Donor 1, Metaxalone 0.4 μM): <2.68 pmol/min/million cells | Specific Activity Mean ± SD ([4]; Donor 1, Metaxalone 0.4 μM): <2.68 ± 0.000 pmol/min/million cells | Percent of VC ([4]; Donor 1, Metaxalone 4 μM): 100% | Specific Activity Individual ([4]; Donor 1, Metaxalone 4 μM): <2.68 pmol/min/million cells | Specific Activity Mean ± SD ([4]; Donor 1, Metaxalone 4 μM): <2.68 ± 0.000 pmol/min/million cells | Percent of VC ([4]; Donor 1, Metaxalone 40 μM): 100% | Specific Activity Individual ([4]; Donor 1, Metaxalone 40 μM): <2.68 pmol/min/million cells | Specific Activity Mean ± SD ([4]; Donor 1, Metaxalone 40 μM): <2.68 ± 0.000 pmol/min/million cells | Percent of VC ([4]; Donor 2, Metaxalone 0.4 μM): 100% | Specific Activity Individual ([4]; Donor 2, Metaxalone 0.4 μM): <2.68 pmol/min/million cells | Specific Activity Mean ± SD ([4]; Donor 2, Metaxalone 0.4 μM): <2.68 ± 0.000 pmol/min/million cells | Percent of VC ([4]; Donor 2, Metaxalone 4 μM): 100% | Specific Activity Individual ([4]; Donor 2, Metaxalone 4 μM): <2.68 pmol/min/million cells | Specific Activity Mean ± SD ([4]; Donor 2, Metaxalone 4 μM): <2.68 ± 0.000 pmol/min/million cells | Percent of VC ([4]; Donor 2, Metaxalone 40 μM): 100% | Specific Activity Individual ([4]; Donor 2, Metaxalone 40 μM): <2.68 pmol/min/million cells | Specific Activity Mean ± SD ([4]; Donor 2, Metaxalone 40 μM): <2.68 ± 0.000 pmol/min/million cells | Percent of VC ([4]; Donor 3, Metaxalone 0.4 μM): 100% | Specific Activity Individual ([4]; Donor 3, Metaxalone 0.4 μM): <2.68 pmol/min/million cells | Specific Activity Mean ± SD ([4]; Donor 3, Metaxalone 0.4 μM): <2.68 ± 0.000 pmol/min/million cells | Percent of VC ([4]; Donor 3, Metaxalone 4 μM): 100% | Specific Activity Individual ([4]; Donor 3, Metaxalone 4 μM): <2.68 pmol/min/million cells | Specific Activity Mean ± SD ([4]; Donor 3, Metaxalone 4 μM): <2.68 ± 0.000 pmol/min/million cells | Percent of VC ([4]; Donor 3, Metaxalone 40 μM): 100% | Specific Activity Individual ([4]; Donor 3, Metaxalone 40 μM): <2.68 pmol/min/million cells | Specific Activity Mean ± SD ([4]; Donor 3, Metaxalone 40 μM): <2.68 ± 0.000 pmol/min/million cells | effects on CYP activity ([4]; any of the tested concentrations (0.4, 4.0, 40 μM)): no significant effects
